# Assay results published in patent US9108958B2, “Selective CCR2 antagonists” (Boehringer Ingelheim International GmbH, priority 2011, dated 2015).
# Tests used:
# CCR2 = biological target: T1, CCR2 (Homo sapiens, UniProt P41597); assay: CCR2 receptor membrane binding assay ([125I]MCP-1, THP-1 cell membranes, SPA beads); conditions: THP-1 membranes, [125I]MCP-1, bound radioactivity after 8 h; read-out: hKi [nM](CCR2)
# T1 construct: Membranes were prepared from THP-1 cells; endogenous in cells; host or cells: THP-1 (human acute monocytic leukaemia cells), membrane preparation
# T1 sequence (P41597 1-360 isoform P41597-2): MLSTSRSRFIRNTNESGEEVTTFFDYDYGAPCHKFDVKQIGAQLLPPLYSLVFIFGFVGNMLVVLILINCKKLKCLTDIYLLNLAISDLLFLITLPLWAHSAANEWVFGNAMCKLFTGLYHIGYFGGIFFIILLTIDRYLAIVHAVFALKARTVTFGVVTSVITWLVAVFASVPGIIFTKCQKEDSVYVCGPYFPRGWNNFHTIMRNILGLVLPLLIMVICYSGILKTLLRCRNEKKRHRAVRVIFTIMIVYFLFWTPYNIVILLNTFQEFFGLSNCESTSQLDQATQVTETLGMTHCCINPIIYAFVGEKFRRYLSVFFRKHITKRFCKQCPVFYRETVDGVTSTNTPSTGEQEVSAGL
# Description: The above exemplary substances have been tested for binding to CCR2 using a binding assay as outlined herein below:
# THP-1 cells (human acute monocytic leukaemia cells) were cultured under standardized conditions at 37° C. and 5% CO2 in a humidified incubator. THP-1 cells were cultivated in RPMI 1640 medium (Gibco 21875) containing 1% MEM-NEAA (Gibso 11140) 2 mM L-glutamine, 1.5 g/L sodium bicarbonate, 4.5 g/L glucose, 10 mM HEPES and 1.0 mM sodium pyruvate, 90%; 10% fetal calf serum (FCS Gibco 10500-064).
# Membranes were prepared from THP-1 cells. THP-1 cells were centrifuged at 300×g at 4° C. for 10 min. The cell pellet was resuspendet in Phosphate Buffer Saline (PBS, including 10 μM Pefabloc and a protease inhibitor mix ‘complete’, Boehringer Mannheim (1 tablet/50 ml)), to a concentration of […]. The membrane preparation was performed by disrupting the cells by nitrogen […] (at 50 bar, for 1 h) in a “Nitrogen Bombe” (Parr Instrument). Cell debris was removed by centrifugation (800×g at 4° C., 1 min) The supernatant was centrifuged at 80000×g, 4° C. for 30 min to sediment the cell membranes. Usually 50 mg of protein (Bradford assay) were yielded from 1×10E9 cells. The membranes were resuspendet in 25 mM HEPES, 25 mM MgCl2, 1 mM CaCl2, 10% Glycerine for storage in aliquots at −80° C. in 25 mM HEPES, 25 mM MgCl2, 1 mM CaCl2, 10% Glycerine and stored at −80° C.
# (§1) Receptor Membrane Binding Assay:
# Perkin Elmer NEX 332 Jod^125 MCP-1, Stock: 2200 Ci/mmol solved in 2000 μl assay buffer, stored at −20° C. THP-1 membrane were adjusted with 25 mM HEPES, pH 7.2; 5 mM MgCl2; 0.5 mM CaCl2; 0.2% BSA assay buffer to a concentration of 2.5 μg/15 μl. Amersham Biosciences PVT-WGA Beads (RPNQ0001) were adjusted with assay buffer to a concentration of 0.24 mg/30 μl. For preparation of the membrane-bead-suspension membranes and beads were incubated for 30 min at RT under rotation (60 rpm) with a ratio of 1:2. Test compounds dissolved in 100% DMSO to a concentration of 10 mM and are further diluted with 100% DMSO to 1 mM. All additional compound dilutions were obtained with assay buffer, final 1% DMSO. Compounds, membrane-bead-suspension and [^125I]MCP-1 (ca. 25000 cpm/10 μl) were incubated. Bound radioactivity was determined by scintillation counter after 8 h. Determination of affinity of test compounds (dissociation constant hKi) is calculated by iterative fitting of experimental data using the “easy sys” program, which is based on law of mass action (Schittkowski K. (1994), Numerische Mathematik, Vol. 68, 129-142).
# human CCR5 = biological target: T2, human CCR5 (Homo sapiens, UniProt P51681); assay: CCR5 receptor membrane binding assay ([125I]RANTES, CHO (Gα16) human CCR5 cell membranes, SPA beads); conditions: bound radioactivity after 6 h, read-out: hKi [nM] (CCR5)
# T2 construct: expressed in transfected cells; host or cells: CHO cells co-expressing Gα16, under puromycin and zeocin selection; membrane preparation
# T2 sequence (P51681 whole entry): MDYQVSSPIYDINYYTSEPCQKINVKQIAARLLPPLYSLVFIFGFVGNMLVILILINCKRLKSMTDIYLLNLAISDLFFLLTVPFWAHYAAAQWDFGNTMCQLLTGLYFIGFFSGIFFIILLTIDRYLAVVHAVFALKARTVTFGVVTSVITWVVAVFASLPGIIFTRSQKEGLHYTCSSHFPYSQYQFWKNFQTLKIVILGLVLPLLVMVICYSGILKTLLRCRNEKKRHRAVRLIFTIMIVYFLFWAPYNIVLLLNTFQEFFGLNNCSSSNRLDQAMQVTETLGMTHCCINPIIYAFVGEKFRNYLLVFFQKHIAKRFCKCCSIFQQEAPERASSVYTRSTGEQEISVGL
# Description: The above exemplary substances have been tested for binding to CCR5 using a binding assay as outlined herein below:
# CHO, (Gα16) human CCR5 cells were cultured under standardized conditions at 37° C. and 5% CO2 in a humidified incubator. CHO (Gα16) human CCR5 cells were cultivated in Ham's F12 (Invitrogen; #31765068) supplemented with 10 μg/ml Puromycin (Invitrogen; #A11139-03), 200 μg/ml Zeocin (Invitrogen; #45-0003) and 10% FCS (Gibco; #10500-064).
# Membranes were prepared from CHO (Gα16) human CCR5 cells. Cells were cultured on […] plates (Nunc; #166508) 2-3 days before membrane preparation (usually 80-100 plates to obtain 80 mg protein).
# Cells were scraped off the plates with a big scraper and washed with 2×5 ml ice cold Phosphate Buffer Saline (PBS; Invitrogen; #14040-174). Cell suspension was collected in a glass bottle (on ice). Cell suspension was harvested at 1400 rpm and 4° C. for 10 min and washed in PBS. Cell pellet was resuspended in 40 ml PBS with protease inhibitor mix ‘complete’ (Roche; #11873580001; 1 tablet/50 ml).
# For gentle cell disruption the membrane preparation was performed by using a homogenizer (potter). Cells were homogenized for 5-10 min.
# Membranes were centrifuged at 1000 rpm and 4° C. for 5 min Supernatant (=membrane) was harvested in a new falcon tube and remaining cell pellet homogenized again for 5-10 min with PBS with protease inhibitor mix and centrifuged. Collected supernatant was centrifuged at 40000 rpm and 4° C. for 30 min to sediment the cell membranes.
# The membranes were resuspended in 25 mM HEPES, 25 mM MgCl2, 1 mM CaCl2, 10% Glycerine for storage in aliquots at −80° C. Membranes were diluted to a concentration of 5 mg/ml (Bradford Assay).
# as §1
# [^125I]RANTES, Stock: 1825 Ci/mmol, 25 μCi (Bio Trend #A3-AI-676) was solved in 1000 μl assay buffer (100 mM NaCl; 10 mM MgCl2; 50 mM Tris-HCl; 1 mM EDTA; 0.1% BSA, pH 7.6), stored at −20° C.
# CHO (Gα16) human CCR5 membrane were solved on ice and adjusted with assay buffer to a concentration of 2.5 μg/15 μl.
# Amersham Biosciences PVT-WGA Beads (GE Healthcare; #RPNQ0001) were adjusted with assay buffer to a concentration of 8 mg/ml. For preparation of the membrane-bead-suspension, membranes and beads were incubated for 30 min at RT under rotation with a ratio of 1:2.
# Test compounds dissolved in 100% DMSO to a concentration of 10 mM and are further diluted with 100% DMSO to 1 mM. All additional compound dilutions were obtained with assay buffer, final 1% DMSO. 7 μl compound dilution, 45 μl membrane-bead-suspension and 10 μl [^125I]RANTES (ca. 20000 cpm/10 μl) were incubated at RT. Bound radioactivity was determined by scintillation counter after 6 h. Determination of affinity of test compounds (dissociation constant Ki) is calculated by iterative fitting of experimental data using the “easy sys” program, which is based on law of mass action (Schittkowski K. (1994), Numerische Mathematik, Vol. 68, 129-142).
Structure (SMILES),Ki (CCR2) [nM],Ki (human CCR5) [nM]
Cc1c(C(=O)N2CCC(N[C@@H]3CCOC[C@@H]3F)CC2)nc(C2CCOCC2)nc1N1CCc2ccc(C(F)(F)F)cc2C1 [Example 14],3,2090
Cc1c(NC[C@H]2CCC[C@@H](c3ccc(C(F)(F)F)cc3)O2)nc(C2CCOCC2)nc1C(=O)N1CCC(N[C@@H]2CCOC[C@@H]2F)CC1 [Example 15],3,270
Cc1c(NC[C@H]2CCC[C@@H](c3ccc(C(F)(F)F)cc3)O2)nc(C2CCOCC2)nc1C(=O)N1CCC(N[C@H]2CCOC[C@H]2F)CC1 [Example 16],1,210
CO[C@@H]1COCC[C@@H]1NC1CCN(C(=O)c2nc(CF)nc(N3CCc4ccc(C(F)(F)F)cc4C3)c2C)CC1 [Example 17],2,180
CO[C@H]1COCC[C@H]1NC1CCN(C(=O)c2nc(CF)nc(N3CCc4ccc(C(F)(F)F)cc4C3)c2C)CC1 [Example 18],5,460
Cc1c(Nc2ccc(Cl)c(Cl)c2)nc(CF)nc1C(=O)N1CCC(NC2CCOCC2F)CC1 (stereo not shown) [Example 19],3,350
CO[C@@H]1COCC[C@@H]1NC1CCN(C(=O)c2nc(CF)nc(Nc3ccc(Cl)c(Cl)c3)c2C)CC1 [Example 20],0.6,31
CO[C@H]1COCC[C@H]1NC1CCN(C(=O)c2nc(CF)nc(Nc3ccc(Cl)c(Cl)c3)c2C)CC1 [Example 21],2,75
Cc1cc(-c2nc(NC[C@H]3CCC[C@@H](c4ccc(C(F)(F)F)cc4)O3)c(C)c(C(=O)N3CCC(N[C@@H]4CCOC[C@@H]4F)CC3)n2)no1 [Example 24],1,50
CO[C@H]1COCC[C@H]1NC1CCN(C(=O)c2nc(-c3cc(C)on3)nc(N3CCc4ccc(C(F)(F)F)cc4C3)c2C)CC1 [Example 26],5,130
Cc1cc(-c2nc(C(=O)N3CCC(N[C@H]4CCOC[C@H]4F)CC3)c(C)c(N3CCc4ccc(C(F)(F)F)cc4C3)n2)no1 [Example 27],15,750
Cc1cc(-c2nc(C(=O)N3CCC(N[C@@H]4CCOC[C@@H]4F)CC3)c(C)c(N3CCc4ccc(C(F)(F)F)cc4C3)n2)no1 [Example 28],11,1350
CO[C@@H]1COCC[C@@H]1NC1CCN(C(=O)c2nc(-c3cc(C)on3)nc(N3CCc4ccc(C(F)(F)F)cc4C3)c2C)CC1 [Example 29],2,53
CO[C@H]1COCC[C@H]1NC1CCN(C(=O)c2nc(C(F)F)nc(N3CCc4ccc(C(F)(F)F)cc4C3)c2C)CC1 [Example 34],4,190
CO[C@@H]1COCC[C@@H]1NC1CCN(C(=O)c2nc(C(F)F)nc(N3CCc4ccc(C(F)(F)F)cc4C3)c2C)CC1 [Example 35],2,160
Cc1c(Nc2ccc(Cl)c(Cl)c2)nc(CF)nc1C(=O)N1CCC(N[C@@H]2CCOC[C@@H]2F)CC1 [Example 37],8,1370
CSc1ccc([C@@H]2CCC[C@H](CNc3cc(C(=O)N4CCC(NC5CCOCC5F)CC4)nc(CF)n3)O2)cc1 (stereo partly shown) [Example 40],7,230
